According to PMC11157491, “Novel Alaninamide Derivatives with Drug-like Potential for Development as Antiseizure and Antinociceptive Therapies—In Vitro and In Vivo Characterization” (ACS Chemical Neuroscience, 2024):

Legend:
[1] = molecular target: T1, TRPV1 (VR1) (h) (Homo sapiens, UniProt Q8NER1); assay: TRPV1 antagonist effect functional assay; type: cell-based; settings: 10 μM, human recombinant CHO cells; read-out: % inhibition of control agonist response
T1 construct: Eurofins (contract assay)
T1 sequence (Q8NER1 whole entry): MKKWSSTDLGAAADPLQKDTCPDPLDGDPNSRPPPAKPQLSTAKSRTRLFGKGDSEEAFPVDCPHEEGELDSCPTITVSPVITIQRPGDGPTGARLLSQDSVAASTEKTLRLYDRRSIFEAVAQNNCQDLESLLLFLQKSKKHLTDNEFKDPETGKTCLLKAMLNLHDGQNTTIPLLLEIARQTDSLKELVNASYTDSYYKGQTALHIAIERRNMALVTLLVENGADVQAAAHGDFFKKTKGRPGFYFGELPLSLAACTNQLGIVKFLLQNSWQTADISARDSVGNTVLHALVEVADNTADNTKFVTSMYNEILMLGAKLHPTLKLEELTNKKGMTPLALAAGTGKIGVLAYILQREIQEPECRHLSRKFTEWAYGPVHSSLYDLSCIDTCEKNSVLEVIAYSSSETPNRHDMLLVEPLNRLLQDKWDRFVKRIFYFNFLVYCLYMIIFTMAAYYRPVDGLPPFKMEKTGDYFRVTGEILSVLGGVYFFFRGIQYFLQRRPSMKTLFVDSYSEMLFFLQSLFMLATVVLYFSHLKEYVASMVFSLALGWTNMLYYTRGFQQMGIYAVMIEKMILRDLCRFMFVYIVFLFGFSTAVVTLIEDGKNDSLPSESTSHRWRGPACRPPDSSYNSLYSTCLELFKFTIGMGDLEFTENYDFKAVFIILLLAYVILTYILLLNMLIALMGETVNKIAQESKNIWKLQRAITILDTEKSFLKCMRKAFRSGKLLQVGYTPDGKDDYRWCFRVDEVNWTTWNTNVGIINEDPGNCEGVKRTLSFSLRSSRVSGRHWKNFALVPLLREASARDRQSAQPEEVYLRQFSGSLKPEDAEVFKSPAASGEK
Protocol: For many years, the TRPV1 channel, permeable to calcium and sodium ions, has been recognized as a promising molecular target for novel analgesics.[19] […] Therefore, bearing in mind the involvement of TRPV1 in pain sensation and potentially in seizure induction, in the next step of the in vitro studies, the TRPV1 antagonist activity was determined for all compounds obtained (Table 6).
Binding/functional studies were carried out commercially in Eurofins Laboratories (Poitiers, France) and Eurofins Panlabs Discovery Services Taiwan, Ltd. (New Taipei City, Taiwan) using testing procedures that were reported previously (for details, see Table S2).
Table S2. Radioligand binding and functional assays. […]
TRPV1 (VR1) (h) (antagonist effect) […]
Assays were performed commercially in Eurofins Laboratories ( Poitiers, France) or Eurofins Panlabs Discovery Services
Taiwan, Ltd. (New Taipei City, Taiwan).

[2] = tested on: mice; assay: 6 Hz (32 mA) psychomotor seizure model; type: in vivo; settings: Mus musculus, ip; for responders at 100 mg/kg: 100 mg/kg i.p., 0.5 h
Excerpt: (§1) Identification and profiling of new ASM candidate compounds are still largely based on predictive animal models of seizures/epilepsy, while a range of in silico and in vitro approaches (i.e., molecular modeling or high throughput screening, etc.) are increasingly used in the early stages of ASM discovery.[31] The Epilepsy Therapy Screening Program (ETSP) of the National Institute of Neurological Disorders and Stroke (NIH, Bethesda, MD) has enabled the discovery of several approved ASMs by focusing on the in vivo testing of compounds synthesized by both academic laboratories and industry.[32] The ETSP provides a broad panel of seizure tests (ca. 30 rodent models), but a subset of them is used for the initial screening of new compounds with potential antiseizure activity. The routinely used seizure models include: (i) the MES test, which is an experimental model of tonic–clonic seizures, (ii) the 6 Hz model (32 mA) of focal seizures, and (iii) the scPTZ model of generalized absence or myoclonic seizures.[33],[34] Consequently, in the current studies, all final compounds 21–36 and 45–48 were initially studied in the MES and the 6 Hz (32 mA) seizure models after intraperitoneal (i.p.) administration at a screening dose of 100 mg/kg in mice at a time point of 0.5 h (the screening group consisted of four mice, and the results obtained are summarized in Table S1).
(§2) These parameters were then used to calculate the protective indexes (PIs, PI = TD50/ED50), which describe the therapeutics window of potential drug candidates. The ED50, TD50, and PI values for the tested compounds together with data of their chemical prototypes KA-11 and KJ-5 and reference ASMs are summarized in Table 2.
(§3) The adult male Albino Swiss mice weighed between 22 and 26 g were used in the in vivo studies. They were housed under standardized housing conditions in colony cages and had free access to food as well as tap water. The animals were left to adapt under laboratory conditions for 7 days. All procedures involving animals and their care were performed in accordance with the current European Community and Polish legislation on animal experimentation.
(§4) In the initial screening studies, four mice per group were randomly assigned to each experimental group (each mouse was used only once). To evaluate the ED50 or TD50 values, four groups consisting of eight animals were injected with various doses of tested compounds. The protective indexes (PIs) for the compounds investigated and reference ASMs were calculated by dividing the TD50 value, as determined in the chimney test, by the respective ED50 value, as determined in the MES, scPTZ, or 6 Hz (32 or 44 mA) tests (PI = TD50/ED50). The PIs are a measure of the potential therapeutic window of the tested agent.
(§5) All substances were suspended in Tween 80 (1% aqueous solution) and administered i.p. as a single injection at a dose of 10 mL/kg. On each day of experimentation, fresh solutions were prepared. The detailed in vivo procedures are described elsewhere: the maximal electroshock seizure test (MES),[60] the subcutaneous pentylenetetrazole seizure test (scPTZ),[61] the 6 Hz psychomotor seizure model (32 and 44 mA),[62] and the chimney test.[63] The reference ASMs were purchased from commercial suppliers: VPA (Sigma-Aldrich, St. Louis, MO), LCS, and LEV (UCB Pharma, Braine l’Alleud, Belgium).

[3] = tested on: mice; assay: Subcutaneous pentylenetetrazole (scPTZ) seizure test; type: in vivo; settings: 100 mg/kg i.p.
Excerpt: as §2, §4, §5

[4] = tested on: mice; assay: Maximal electroshock (MES) seizure test; type: in vivo; settings: Mus musculus, ip
Excerpt: as §1, §2, §3, §4, §5

Work on `CC(=O)NC(C)C(=O)N1CCN(c2cccc(SC(F)(F)F)c2)CC1` (stereo not drawn) [Compound 30, N-(1-oxo-1-(4-(3-((Trifluoromethyl)thio)phenyl)piperazin-1-yl)propan-2-yl)acetamide] yielded an inhibition at 10 µM [1] of 12%, a responders at 100 mg/kg ([2]; four mice, read-out: protection in 6 Hz (32 mA) screening) of 100% and a responders at 100 mg/kg ([2]; read-out: 6 Hz (32 mA): number of mice protected/number of mice tested (converted)) of 100%. For the same molecule, the ED50 ([2]; mice, pretreatment 0.5 h) was 39.1 mg/kg, the “protection in scPTZ screening” value [3] was 50% and the “scPTZ: number of mice protected/number of mice tested” value ([3]; 0.5 h) was 2/4. For the same molecule, the melting point was 110.9 to 111.7 °C, the responders at 100 mg/kg ([4]; 100 mg/kg i.p., 0.5 h, read-out: MES: number of mice protected/number of mice tested (converted)) was 100% and the ED50 ([4]; mice, pretreatment 0.5 h) was 45.3 mg/kg.
